Data taken from article PMC5449569, “Basal late sodium current is a significant contributor to the duration of action potential of guinea pig ventricular myocytes” (Physiological Reports, 2017).

Target: T1, NaV1.5 channel (native basal late sodium current, INaL) (Cavia porcellus, UniProt H0V4Z8)
T1 construct: gene SCN5A; native channel in isolated guinea pig ventricular myocytes
Test: whole-cell patch clamp of late Na+ current, single concentration ([…])
Format: cell-based
Details: read-out: % inhibition at 2 mmol/L

T1 sequence (H0V4Z8 1-2015): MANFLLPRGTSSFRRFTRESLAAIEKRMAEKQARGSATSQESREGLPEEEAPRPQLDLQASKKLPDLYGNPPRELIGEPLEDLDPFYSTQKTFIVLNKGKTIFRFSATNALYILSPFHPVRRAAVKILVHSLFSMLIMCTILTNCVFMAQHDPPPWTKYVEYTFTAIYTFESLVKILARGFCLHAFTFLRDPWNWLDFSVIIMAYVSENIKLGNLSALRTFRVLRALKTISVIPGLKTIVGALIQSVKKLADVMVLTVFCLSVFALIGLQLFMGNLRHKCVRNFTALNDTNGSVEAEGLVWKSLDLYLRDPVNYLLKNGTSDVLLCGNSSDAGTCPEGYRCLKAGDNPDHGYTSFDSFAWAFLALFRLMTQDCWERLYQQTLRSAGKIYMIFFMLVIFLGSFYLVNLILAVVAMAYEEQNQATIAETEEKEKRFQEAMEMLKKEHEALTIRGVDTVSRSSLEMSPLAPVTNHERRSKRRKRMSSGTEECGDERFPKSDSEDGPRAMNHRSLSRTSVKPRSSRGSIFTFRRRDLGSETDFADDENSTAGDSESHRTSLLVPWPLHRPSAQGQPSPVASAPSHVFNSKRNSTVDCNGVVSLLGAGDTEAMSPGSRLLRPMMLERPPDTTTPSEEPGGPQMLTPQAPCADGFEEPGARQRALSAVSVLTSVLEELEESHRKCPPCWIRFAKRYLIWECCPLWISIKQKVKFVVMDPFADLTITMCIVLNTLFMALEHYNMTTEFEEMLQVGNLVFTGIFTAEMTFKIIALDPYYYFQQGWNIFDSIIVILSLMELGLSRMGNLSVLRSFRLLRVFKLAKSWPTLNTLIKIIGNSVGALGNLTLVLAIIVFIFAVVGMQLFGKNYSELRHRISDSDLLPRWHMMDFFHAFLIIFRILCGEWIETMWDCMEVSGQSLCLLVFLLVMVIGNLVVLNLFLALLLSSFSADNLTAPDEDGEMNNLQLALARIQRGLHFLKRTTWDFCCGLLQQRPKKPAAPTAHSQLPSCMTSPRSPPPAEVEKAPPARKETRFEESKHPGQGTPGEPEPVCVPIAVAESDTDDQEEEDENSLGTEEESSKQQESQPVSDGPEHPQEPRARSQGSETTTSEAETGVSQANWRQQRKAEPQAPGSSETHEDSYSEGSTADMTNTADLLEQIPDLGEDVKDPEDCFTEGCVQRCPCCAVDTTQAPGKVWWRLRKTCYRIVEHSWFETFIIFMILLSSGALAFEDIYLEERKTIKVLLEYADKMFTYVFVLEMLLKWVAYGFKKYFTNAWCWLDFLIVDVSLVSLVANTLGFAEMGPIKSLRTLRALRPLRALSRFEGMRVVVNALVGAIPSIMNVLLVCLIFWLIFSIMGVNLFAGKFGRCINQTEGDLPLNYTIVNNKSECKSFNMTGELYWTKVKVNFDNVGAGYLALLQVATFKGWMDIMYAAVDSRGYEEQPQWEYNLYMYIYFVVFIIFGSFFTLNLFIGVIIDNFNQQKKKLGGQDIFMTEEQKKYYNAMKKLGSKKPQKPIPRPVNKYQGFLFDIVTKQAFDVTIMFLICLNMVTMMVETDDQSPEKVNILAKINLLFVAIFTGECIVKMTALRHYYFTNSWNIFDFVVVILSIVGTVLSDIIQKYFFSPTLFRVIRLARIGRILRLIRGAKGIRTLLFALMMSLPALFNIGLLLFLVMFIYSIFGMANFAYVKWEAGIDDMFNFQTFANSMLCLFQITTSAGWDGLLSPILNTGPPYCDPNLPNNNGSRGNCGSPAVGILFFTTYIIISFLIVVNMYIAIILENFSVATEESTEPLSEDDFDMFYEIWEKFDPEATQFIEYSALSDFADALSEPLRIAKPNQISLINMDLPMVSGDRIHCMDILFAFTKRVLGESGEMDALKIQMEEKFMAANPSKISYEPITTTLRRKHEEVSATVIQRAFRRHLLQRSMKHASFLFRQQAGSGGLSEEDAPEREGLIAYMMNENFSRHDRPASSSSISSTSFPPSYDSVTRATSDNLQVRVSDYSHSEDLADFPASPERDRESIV

SMILES: CS(=O)(=O)SCCN [MTSEA]
- inhibition at 2000 µM: 90 ± 5%
